Results on 16 compounds are retold here after paper PMC12138827, “Molecular Modeling and In Vitro Evaluation of Thioureas and Arylthioureas as Urease Inhibitors” (ACS Omega, 2025).

In data set [1] the target is T1, C. ensiformis urease (CEU) (Canavalia ensiformis, UniProt P07374).
T1 construct: purchased Merck (Sigma-Aldrich) Jack bean type III (CAS 9002-13-5)
As to the kind of experiment: biochemical. Particulars: triplicate; for inhibition at 2000 µM: read-out: %I ± SD (inhibitory percentage against CEU), test substance at 2.00 mM; for %I ± SD (inhibitory percentage against CEU): test substance at 2.00 mM; for IC50: 0.2-2.0 mM. As to the method: The in vitro inhibitory activity of C. ensiformis urease was conducted using the indophenol reaction, also known as the Berthlot Reaction. Commercially purchased urease from Merck (Sigma-Aldrich), Jack bean type III (CAS 9002–13–5), was utilized, and the methodology was adapted from Khan et al. (2017).
(§1) The assays were performed in triplicate on a 96-well plate, as described by our research group. , The procedure involved adding 100 μL of urea (10 mM), 55.0 μL of sodium phosphate buffer solution (100 mM, pH 7.4) supplemented with EDTA (1 mM), and 10 μL of the test substance at 2.00 mM for inhibition percentage assays, previously dissolved in methanol. Subsequently, 25.0 μL of urease enzyme solution (0.0035 mM) was added, and the reaction mixture was incubated at 45–50 °C for 30 min. After incubation, 40.0 μL of phenol reagent (1% phenol and 0.05% sodium nitroprusside) and 40.0 μL of alkaline reagent (1.0% NaOH and […]) were added. The reaction rested for 15 min, and the absorbance was read at 630 nm using a Loccus model LMR-96i UV–visible microplate reader.
Thiourea (2.00 mM) served as the standard inhibitor.
To determine half of the maximum inhibitory concentration (IC50), substances LaSMMed 42, LaSMMed 122–126, and the thiourea control were tested at different concentrations (0.2, 0.4, 0.8, 1.0, 1.4, and 2.0 mM). The IC50 values were calculated using GraphPad Prism 8.0.2, employing a dose–response curve.

Data set [2] is described as follows: Solubility under the urease assay conditions. Type of data set: physicochemical. To be noted: urease assay medium. On the procedure:
as §1

Data set [3] deals with T1, C. ensiformis urease (CEU). In words: Enzyme kinetics on C. ensiformis urease (Michaelis–Menten, Lineweaver–Burk plots). It is filed as biochemical. Particulars: for Vmax: CEU kinetic parameter with the compound; for Ki: Lineweaver–Burk, compound 0.50 and 0.25 mM; for Alfa (α): mixed inhibitors; for Inhibition type (mechanism of action): Lineweaver–Burk plots. As to the method:
Enzyme kinetics were studied following previous work by our research group. , The same reaction mixture was applied to determine inhibitory activity, and the IC50 was adopted to study enzyme kinetics in C. ensiformis urease. However, only two concentrations of the test substance were used (0.50 and 0.25 mM), along with five different concentrations of urea substrate (0.66, 1.00, 1.50, 2.00, and 2.50 mM) for each sample. The absorbance of the reaction mixture was recorded at 630 nm using a Loccus model LMR-96i UV–visible microplate reader. Michaelis–Menten (nonlinear regression) and Lineweaver–Burk (linear regression) plots, as well as the determination of inhibition constants (K i ), K m, α, and V max, were made using GraphPad Prism software (version 8.0.2). Enzymatic activity was calculated using an ammonium chloride calibration curve. One unit of enzymatic activity (U) is the amount of enzyme capable of releasing 1 μmol of ammonia per minute of reaction (U = 1 μmol NH4 ^+ min^–1 μmol enzyme^–1). The assays were performed in triplicate.

Several values for one entry are separate records, joined by “and”; a condition that tells them apart may be missing. Equal values may be shown once. Entries after “also recorded” stand apart in the source; their conditions may differ. Read-outs that look alike come from different tables or passages of the source. Marks after values point to notes of the source that are not given here.

T1 sequence (P07374 whole entry, looked up): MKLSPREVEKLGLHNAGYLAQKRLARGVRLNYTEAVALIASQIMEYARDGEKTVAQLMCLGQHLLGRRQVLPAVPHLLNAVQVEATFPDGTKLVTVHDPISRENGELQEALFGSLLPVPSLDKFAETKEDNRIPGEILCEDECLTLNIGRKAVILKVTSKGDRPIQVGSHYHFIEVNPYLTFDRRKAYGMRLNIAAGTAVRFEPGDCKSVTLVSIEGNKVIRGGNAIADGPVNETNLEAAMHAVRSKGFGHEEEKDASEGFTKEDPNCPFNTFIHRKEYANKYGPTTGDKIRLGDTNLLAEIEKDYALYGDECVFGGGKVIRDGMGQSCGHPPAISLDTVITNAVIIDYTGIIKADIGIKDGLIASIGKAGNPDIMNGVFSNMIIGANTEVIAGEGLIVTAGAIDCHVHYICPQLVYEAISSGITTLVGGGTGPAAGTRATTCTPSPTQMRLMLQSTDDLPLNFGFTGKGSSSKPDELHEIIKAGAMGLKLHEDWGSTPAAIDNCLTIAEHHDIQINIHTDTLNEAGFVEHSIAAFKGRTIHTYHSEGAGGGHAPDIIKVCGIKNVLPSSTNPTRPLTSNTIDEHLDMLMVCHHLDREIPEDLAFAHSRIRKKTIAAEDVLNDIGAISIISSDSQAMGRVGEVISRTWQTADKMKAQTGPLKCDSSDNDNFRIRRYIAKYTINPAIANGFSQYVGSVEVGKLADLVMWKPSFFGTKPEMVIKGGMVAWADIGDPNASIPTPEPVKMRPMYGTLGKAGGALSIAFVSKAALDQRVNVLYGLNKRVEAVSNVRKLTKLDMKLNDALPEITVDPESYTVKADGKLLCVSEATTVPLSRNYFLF

For `CNC(=S)NC(=O)/C=C/c1ccccc1` [LaSMMed 37], in data set [1], the inhibition at 2000 µM lay in the range of 30 to 40% and the “%I ± SD (inhibitory percentage against CEU)” value was 33.53 ± 1.06^c %.
With `CCCCCCNC(=S)NC(=O)/C=C/c1ccccc1` [LaSMMed 40], the “%I ± SD (inhibitory percentage against CEU)” value in data set [1] is 39.34 ± 1.72^c %.
Regarding `NC(=S)NC(=O)/C=C/c1ccccc1` [LaSMMed 42], in data set [1], the inhibition at 2000 µM was found to be 82% and the “%I ± SD (inhibitory percentage against CEU)” value is listed as 82.37 ± 0.34^d %.
As to `COc1ccc(NC(=S)NC(=O)/C=C/c2ccccc2)cc1` [LaSMMed 44], the “Solubility under the tested conditions” value in data set [2] is listed as “insoluble”.
For the compound `O=C(/C=C/c1ccccc1)NC(=S)Nc1ccc(F)cc1` [LaSMMed 45], in data set [1], the inhibition at 2000 µM was determined as 24% and the “%I ± SD (inhibitory percentage against CEU)” value is 23.98 ± 1.44^e %.
`Cc1ccc(NC(=S)NC(=O)/C=C/c2ccccc2)cc1` [LaSMMed 46]: in data set [1], the “%I ± SD (inhibitory percentage against CEU)” value is listed as 13.04 ± 2.46^f %.
Regarding `NC(=S)Nc1ccc(Cl)cc1` [LaSMMed 122], in data set [1] (IC50 ± SD), the IC50 is ~575 µM and 575 µM. Also, the inhibition at 2000 µM in data set [1] came to 87.6 ± 1.72%. In data set [3], the Vmax was determined as 735.50 µmol/min; the inhibition constant (Ki) is 90 µM and 89 µM; the “Alfa (α)” value stood at 6.00.
`NC(=S)Nc1ccc(Br)cc1` [LaSMMed 123] showed a concentration for half-maximal inhibition (IC50) in data set [1] (IC50 ± SD) of 493 ± 7 µM. Further, the inhibition at 2000 µM in data set [1] turned out to be 86.18 ± 0.75%. For the same compound, in data set [3], the Vmax turned out to be 741.30 µmol/min, the Ki is 110 µM and the “Alfa (α)” value was 9.75.
Turning to `NC(=S)Nc1ccc([N+](=O)[O-])cc1` [LaSMMed 124], in data set [1] (IC50 ± SD), the IC50 worked out at 464 ± 3 µM. The inhibition at 2000 µM in data set [1] amounted to 88.3 ± 0.26%. In addition, in data set [3], the Vmax is 733.50 µmol/min; the affinity, expressed as Ki, was 130 µM; the “Alfa (α)” value is on record as 6.13.
Turning to `COc1ccc(NC(N)=S)cc1` [LaSMMed 125], the IC50 in data set [1] (IC50 ± SD) is 510 ± 19 µM. In data set [1], the inhibition at 2000 µM came to 84% and the “%I ± SD (inhibitory percentage against CEU)” value is reported as 84.56 ± 1.23^b %. Also, in data set [3], the Vmax was 737.50 µmol/min, affinity was put at a Ki of 80 µM and the “Inhibition type (mechanism of action)” value is given as “competitive inhibition; also recorded: competitive inhibitor”.
`Cc1ccc(NC(N)=S)cc1` [LaSMMed 126]: inhibition in data set [1] (IC50 ± SD) was half-maximal at 568 ± 22 µM (IC50). Further, the inhibition at 2000 µM in data set [1] stood at 87.86 ± 0.48%. Moreover, in data set [3], the Vmax worked out at 732.30 µmol/min, the Ki was 100 µM, the “Inhibition type (mechanism of action)” value is on record as “mixed-type inhibition” and the “Alfa (α)” value is reported as 4.88.
On to `NC(N)=S` [Thiourea], for which, in data set [1] (read-out: IC50 ± SD), the IC50 stood at 504 ± 25 µM. Also, the “%I ± SD (inhibitory percentage against CEU)” value in data set [1] is given as 84.12 ± 0.84^d %; in data set [1] (listed as thiourea), 84%.
As for `CCCCCCNC(=S)NC(=O)/C=C/c1ccccc1` [compound 40], in data set [1], the inhibition at 2000 µM lay within 30 to 40%.
Consider `Cc1ccc(NC(=S)NC(=O)/C=C/c2ccccc2)cc1` [compound 46], for which the inhibition at 2000 µM in data set [1] turned out to be 13%.
For `NC(=S)Nc1ccc([N+](=O)[O-])cc1` [compound 124], the Ki in data set [3] is around 100 µM.
`Cc1ccc(NC(N)=S)cc1` [compound 126] displayed a concentration for half-maximal inhibition (IC50) in data set [1] (IC50 ± SD) of around 575 µM. For the same compound, the Ki in data set [3] is around 100 µM.
